This passage reports IC50 results from patent US20230009608A1, “GRK2 INHIBITORS AND USES THEREOF” (Cygnal Therapeutics, Inc., priority 2020, published 2023).

For assay [1], the system named is PAXF1657 control empty vector cell line. In words: 7-day proliferation assay, PAXF1657 control empty vector cell line (Example 9). It is filed as cell-based. Particulars: 168 h; Cell Line: PAXF1657 empty vector (EV) cell line; 7-day; read-out: C: 7-day proliferation assay: IC50 GeoMean. The procedure, abridged: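 PAXF1657 isogenic lines (GRK2-overexpressing vs empty vector; CRISPR GRK2 knockout vs non-targeting control clones) seeded 500 cells/well in RPMI1640/10% FBS and treated next day with 10-point dilutions, 30 μM-0.0002 μM final, 0.3% DMSO. Media with compound refreshed after 3 days; viability read by CellTiter-Glo luminescence at day 7.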

The next assay concerns the target T1, GRK2 (Homo sapiens, UniProt P25098).
T1 construct: purchased SignalChem A14-10G
T1 sequence (P25098 1-689): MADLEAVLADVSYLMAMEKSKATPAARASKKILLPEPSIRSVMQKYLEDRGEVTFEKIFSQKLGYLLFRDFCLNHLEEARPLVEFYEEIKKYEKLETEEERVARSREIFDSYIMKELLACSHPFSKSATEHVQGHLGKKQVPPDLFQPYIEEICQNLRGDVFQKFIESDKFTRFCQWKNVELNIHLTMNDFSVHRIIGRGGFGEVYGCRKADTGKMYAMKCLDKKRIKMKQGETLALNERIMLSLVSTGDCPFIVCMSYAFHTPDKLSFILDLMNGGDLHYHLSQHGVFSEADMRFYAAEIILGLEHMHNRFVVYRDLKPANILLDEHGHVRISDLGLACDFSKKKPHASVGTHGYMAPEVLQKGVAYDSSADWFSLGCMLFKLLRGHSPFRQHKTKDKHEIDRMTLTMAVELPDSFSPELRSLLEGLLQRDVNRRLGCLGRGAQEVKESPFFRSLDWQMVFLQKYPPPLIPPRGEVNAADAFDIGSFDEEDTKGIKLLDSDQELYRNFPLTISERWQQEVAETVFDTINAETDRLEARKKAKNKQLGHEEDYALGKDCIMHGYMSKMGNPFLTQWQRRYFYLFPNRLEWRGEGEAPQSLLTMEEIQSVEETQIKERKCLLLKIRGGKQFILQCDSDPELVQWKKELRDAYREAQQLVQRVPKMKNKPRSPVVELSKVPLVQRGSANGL
In words: ADPGlo GRK2 Inhibition Assay (Example 8). The note with it: ADPGlo GRK2 enzyme assay; read-out: A: Enzymatic GRK2: IC50 (nM) (Example 8). It is filed as biochemical. In short, it runs like this:
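GRK2 (15 nM 2× enzyme solution) was preincubated 15 min with compound, then reacted 180 min at room temperature with 2× mix of 20 μM ATP plus GRKtide in HEPES pH 7.5, MgCl2, Tween-20, DTT. ADP was detected by ADP-Glo luminescence. Percent inhibition was normalised to enzyme and no-enzyme controls, with dose-response curves from threefold dilutions starting at 100 μM.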

`Cn1c(CNc2cccc(C(=O)NC(CCO)c3ccccc3F)c2)nnc1-c1ccncn1` (stereo not shown): the figures for the IC50 (in assay [1]; on GRK2) were 0.536 µM and 35.6 nM, respectively.
Consider `Cn1c(CNc2cccc(C(=O)NCc3ccccc3S(C)(=O)=O)c2)nnc1-c1ccncn1`, for which the IC50 in assay [1] is 1.95 µM; at GRK2 it was 57.1 nM.
For `COc1ccc(CNC(=O)c2cccc(NCc3nnc(-c4ccncn4)n3C)c2)c(OC)n1`, in that order: 0.797 µM and 37.2 nM.
For `Cn1c(CNc2cccc(C(=O)NC3C(=O)NCc4ccccc43)c2)nnc1-c1ccncn1` (stereo not shown), the IC50 is over 30 µM in assay [1] and 38.1 nM at GRK2.
Regarding `Cn1c(CNc2cccc(C(=O)NCc3cc(S(C)(=O)=O)ccc3F)c2)nnc1-c1ccncn1`, the figures for the IC50 (in assay [1]; at GRK2) were over 16 µM and 52 nM, respectively.
With `Cc1nccn1-c1ncccc1CNC(=O)c1cccc(NCc2nnc(-c3ccncn3)n2C)c1`, the IC50 is over 25.8 µM in assay [1] and 58.8 nM on GRK2.
Take `Cn1c(CNc2cccc(C(=O)NCc3ccccc3N3CCOCC3)c2)nnc1-c1ccncn1`: the figures for the IC50 (in assay [1]; at GRK2) were 3.25 µM and 50 nM, respectively.
On the same counts, the results for `Cn1c(CNc2cccc(C(=O)NCc3c(F)cccc3NS(C)(=O)=O)c2)nnc1-c1ccncn1` are 3.25 µM and 9.42 nM.
On the same counts, the results for `CC(C)NS(=O)(=O)c1ccccc1CNC(=O)c1cccc(NCc2nnc(-c3ccncn3)n2C)c1` are over 15.9 µM and 65.8 nM.
In the case of `Cn1c(CNc2cccc(C(=O)NCc3ccccc3S(=O)(=O)NC(C)(C)C)c2)nnc1-c1ccncn1`, the figures for the IC50 (in assay [1]; at GRK2) were 4.29 µM and 54 nM, respectively.
Turning to `Cn1c(CNc2cccc(C(=O)NCc3ccncc3Br)c2)nnc1-c1ccncn1`, the IC50 in assay [1] was 0.633 µM; at GRK2, 13.8 nM.
Consider `Cn1c(CNc2cccc(C(=O)NCc3ccccc3CO)c2)nnc1-c1ccncn1`, for which the IC50 in assay [1] was 1.56 µM; at GRK2 it was 18.4 nM.
Regarding `Cc1ccnc(CNC(=O)c2cccc(NCc3nnc(-c4ccncn4)n3C)c2)c1F`, the figures for the IC50 (in assay [1]; at GRK2) were over 30 µM and 50.2 nM, respectively.
Turning to `COc1ccncc1CNC(=O)c1cccc(NCc2nnc(-c3ccncn3)n2C)c1`, the IC50 in assay [1] turned out to be 5.09 µM; on GRK2 it was 28.1 nM.
For `CCc1cccnc1CNC(=O)c1cccc(NCc2nnc(-c3ccncn3)n2C)c1`, in that order: 4.51 µM and 22.6 nM.
Consider `CN(C)c1ncccc1CNC(=O)c1cccc(NCc2nnc(-c3ccncn3)n2C)c1`, for which the figures for the IC50 (in assay [1]; at GRK2) were 1.16 µM and 46.1 nM, respectively.
As for `COc1nccc(C)c1CNC(=O)c1cccc(NCc2nnc(-c3ccncn3)n2C)c1`, the IC50 in assay [1] was 0.93 µM; at GRK2 it was 37.3 nM.
Take `COc1ccc(CNC(=O)c2cccc(NCc3nnc(-c4ccncn4)n3C)c2)c(C)n1`: the IC50 in assay [1] is over 30 µM; on GRK2, 28.5 nM.
With `COc1ccccc1C(C#N)NC(=O)c1cccc(NCc2nnc(-c3ccncn3)n2C)c1` (stereo not shown), the IC50 in assay [1] was 0.468 µM; on GRK2, 6.03 nM.
In the case of `Cn1c(CNc2cccc(C(=O)NC3CS(=O)(=O)c4ccccc43)c2)nnc1-c1ccncn1` (stereo not shown), the IC50 in assay [1] worked out at 1.44 µM; on GRK2, 20.2 nM.
With `CN1Cc2ccccc2C(NC(=O)c2cccc(NCc3nnc(-c4ccncn4)n3C)c2)C1` (stereo not shown), the values for the IC50 (in assay [1]; on GRK2) were 7.67 µM and 45.9 nM, respectively.
In the case of `Cn1c(CNc2cccc(C(=O)NCc3c(F)ccc4[nH]cnc34)c2)nnc1-c1ccncn1`, the IC50 in assay [1] is 22.6 µM; at GRK2 it was 19.2 nM.
As to `Cn1c(CNc2cccc(C(=O)NCc3ccccc3-n3ccnc3)c2)nnc1-c1ccncn1`, the IC50 was 1.15 µM in assay [1] and 30 nM at GRK2.
Take `CN(C)S(=O)(=O)c1ccccc1CNC(=O)c1cccc(NCc2nnc(-c3ccncn3)n2C)c1`: the IC50 in assay [1] amounted to 21.5 µM; on GRK2, 47.2 nM.
For `Cn1c(CNc2cccc(C(=O)NCc3ccccc3Cn3cncn3)c2)nnc1-c1ccncn1`, the IC50 in assay [1] was determined as 7.41 µM; on GRK2 it was 55.7 nM.
On to `CCC(NC(=O)c1cccc(NCc2nnc(-c3ccncn3)n2C)c1)c1ccccc1OCC(=O)NC` (stereo not shown), for which the values for the IC50 (in assay [1]; on GRK2) were over 27.8 µM and 67.2 nM, respectively.
On to `Cn1c(CNc2cccc(C(=O)NCc3ccncc3-c3cc[nH]n3)c2)nnc1-c1ccncn1`, for which the figures for the IC50 (in assay [1]; at GRK2) were over 23.3 µM and 53.5 nM, respectively.
Turning to `Cn1c(CNc2cccc(C(=O)NCc3cccnc3OC(F)F)c2)nnc1-c1ccncn1`, the IC50 in assay [1] worked out at 1.44 µM; on GRK2 it was 16.7 nM.
On to `Cc1ncncc1[C@@H](C)NC(=O)c1cccc(NCc2nnc(-c3ccncn3)n2C)c1`, for which the values for the IC50 (in assay [1]; on GRK2) were over 30 µM and 15.5 nM, respectively.
For `Cn1c(CNc2cccc(C(=O)NC3CC(=O)c4ccccc43)c2)nnc1-c1ccncn1` (stereo not shown), the IC50 in assay [1] was determined as 0.867 µM; on GRK2, 19 nM.
On the same counts, the results for `Cn1c(CNc2cccc(C(=O)NC3CCOc4ncccc43)c2)nnc1-c1ccncn1` (stereo not shown) are over 30 µM and 56.7 nM.
`Cc1cc(C)c(CNC(=O)c2cccc(NCc3nnc(-c4ccncn4)n3C)c2)c(=O)[nH]1`: the IC50 in assay [1] is over 30 µM; at GRK2 it was 14.9 nM.
Regarding `Cc1cc(CO)cc(C)c1CNC(=O)c1cccc(NCc2nnc(-c3ccncn3)n2C)c1`, the IC50 in assay [1] worked out at 0.738 µM; at GRK2 it was 10.8 nM.
As to `Cc1ccc(C)c(CNC(=O)c2cccc(NCc3nnc(-c4ccncn4)n3C)c2)n1`, the IC50 was over 30 µM in assay [1] and 11.2 nM at GRK2.
On the same counts, the results for `Cn1c(CNc2cccc(C(=O)NCc3cccc4c3CCNC4)c2)nnc1-c1ccncn1` are over 30 µM and 18.4 nM.
Turning to `Cn1c(CNc2cccc(C(=O)NCc3cccc4c3CCOC4)c2)nnc1-c1ccncn1`, the values for the IC50 (in assay [1]; on GRK2) were over 30 µM and 8.5 nM, respectively.
On the same counts, the results for `Cn1c(CNc2cccc(C(=O)NCc3ccccc3CN3CCOCC3)c2)nnc1-c1ccncn1` are 6.71 µM and 71.5 nM.
For the molecule `CN(C)CCNc1ccccc1CNC(=O)c1cccc(NCc2nnc(-c3ccncn3)n2C)c1`, the values for the IC50 (in assay [1]; at GRK2) were over 30 µM and 53.3 nM, respectively.
Turning to `Cn1c(CNc2cccc(C(=O)NCc3ccccc3NS(C)(=O)=O)c2)nnc1-c1ccncn1`, the values for the IC50 (in assay [1]; on GRK2) were over 30 µM and 32.1 nM, respectively.
For the molecule `CN(CCO)S(=O)(=O)c1ccccc1CNC(=O)c1cccc(NCc2nnc(-c3ccncn3)n2C)c1`, the IC50 in assay [1] is over 11.8 µM; at GRK2 it was 42 nM.
Regarding `CNc1ncccc1CNC(=O)c1cccc(NCc2nnc(-c3ccncn3)n2C)c1`, the IC50 is 1.63 µM in assay [1] and 18.3 nM on GRK2.
On the same counts, the results for `Cn1c(CNc2cccc(C(=O)NCc3ncccc3Cl)c2)nnc1-c1ccncn1` are over 16.4 µM and 48.2 nM.
Consider `Cn1c(CNc2cccc(C(=O)NCc3cnn(CCF)c3)c2)nnc1-c1ccncn1`, for which the IC50 in assay [1] is over 5.6 µM; at GRK2, 82.9 nM.
For the molecule `Cn1c(CNc2cccc(C(=O)NCc3ccc(C(F)F)cc3)c2)nnc1-c1ccncn1`, the IC50 in assay [1] was over 13.1 µM; on GRK2, 64.2 nM.
`COc1cccc(CNC(=O)c2cccc(NCc3nnc(-c4ccncn4)n3C)c2)c1C`: the figures for the IC50 (in assay [1]; on GRK2) were over 12.6 µM and 12.6 nM, respectively.
As for `Cn1c(CNc2cccc(C(=O)NCc3cnn4c3CCCC4)c2)nnc1-c1ccncn1`, the IC50 is over 24.8 µM in assay [1] and 71.6 nM at GRK2.
Regarding `Cn1c(CNc2cccc(C(=O)NCc3ccc(F)c(F)c3)c2)nnc1-c1ccncn1`, the IC50 in assay [1] was found to be 9.33 µM; on GRK2, 63.7 nM.
